Reference: patent US20110028686A1, “Protein binding miniature proteins” (Yale University, priority 2000, published 2011)
Like-named read-outs stand apart in the source and are kept apart here. Square brackets hold non-standard residues; d marks the D form. Peptide text beside a SMILES is read from it. * marks the point of attachment. Fluorescein(5-NHCOCH2) = O=C(C*)Nc1ccc2c(c1)C(=O)OC21c2ccc(O)cc2Oc2cc(O)ccc21; pS = N[C@@H](COP(=O)(O)O)C(=O)O; Sar = CNCC(=O)O

What was measured:
CBP KIX wild type = target: T1, CBP KIX wild type (Mus musculus, UniProt P45481); assay: Equilibrium fluorescence polarization, wild type CBP KIX; assay type: binding; details: 25° C.
T1 construct: made in house; host or cells: E. coli BL21(DE3) pArg

[1] = target: T2, HisKIX (His-tagged CBP KIX domain) (Mus musculus, UniProt P45481); assay: Equilibrium fluorescence polarization, HisKIX binding; details: for Kd: 25° C.
T2 construct: The CBP KIX-coding region (residues 586 to 672) of pGEX-KT KIX 10-672; made in house; host or cells: E. coli BL21(DE3) pArg

[2] = fluorescein-labeled unphosphorylated peptide, read-out: Kd HisKIX, unphosphorylated peptide (U)

T1 sequence (P45481 586-665 limits assumed): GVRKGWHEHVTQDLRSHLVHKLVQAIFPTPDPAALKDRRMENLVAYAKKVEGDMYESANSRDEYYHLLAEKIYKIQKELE
T2 sequence (P45481 586-672): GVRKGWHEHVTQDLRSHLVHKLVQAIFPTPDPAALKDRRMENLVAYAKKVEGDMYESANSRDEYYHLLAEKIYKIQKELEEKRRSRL

Row | Structure (SMILES) | Kd (CBP KIX wild type) [nM] | Kd [1, 2] [µM] | also measured
1 | CC[C@H](C)[C@H](NC(=O)[C@H](Cc1ccc(O)cc1)NC(=O)[C@H](Cc1ccccc1)NC(=O)[C@H](Cc1ccccc1)NC(=O)[C@H](COP(=O)(O)O)NC(=O)[C@H](CC(C)C)NC(=O)[C@H](CCCNC(=N)N)NC(=O)[C@H](CCCNC(=N)N)NC(=O)[C@@H](NC(=O)[C@@H]1CCCN1C(=O)[C@H](C)NC(=O)[C@H](CC(=O)O)NC(=O)[C@H](CC(=O)O)NC(=O)CNC(=O)CN(C)C(=O)[C@H](Cc1ccc(O)cc1)NC(=O)[C@@H](NC(=O)[C@@H]1CCCN1C(=O)[C@H](CCC(N)=O)NC(=O)[C@H](CO)NC(=O)[C@@H]1CCCN1C(=O)CN)[C@@H](C)O)C(C)C)C(=O)N[C@@H](CC(C)C)C(=O)N[C@@H](CC(C)C)C(=O)N[C@@H](CC(=O)O)C(=O)N[C@@H](CC(C)C)C(=O)N[C@@H](Cc1ccc(O)cc1)C(=O)N[C@@H](CC(C)C)C(=O)N[C@@H](CC(=O)O)C(=O)N[C@@H](C)C(=O)N1CCC[C@H]1C(=O)NCC(=O)N[C@H](C(=O)N[C@@H](CSCC(=O)Nc1ccc2c(c1)C(=O)OC21c2ccc(O)cc2Oc2cc(O)ccc21)C(N)=O)C(C)C [P8Z] (H-GPSQPTY[Sar]GDDAPVRRL[pS]FFYILLDLYLDAPGVC(Fluorescein(5-NHCOCH2))-NH2) | 780 ± 50 | – | –
2 | CC[C@H](C)[C@H](NC(=O)[C@H](Cc1ccc(O)cc1)NC(=O)[C@H](Cc1ccccc1)NC(=O)[C@H](Cc1ccccc1)NC(=O)[C@H](CO)NC(=O)[C@H](CC(C)C)NC(=O)[C@H](CCCNC(=N)N)NC(=O)[C@H](CCCNC(=N)N)NC(=O)[C@@H](NC(=O)[C@@H]1CCCN1C(=O)[C@H](C)NC(=O)[C@H](CC(=O)O)NC(=O)[C@H](CC(=O)O)NC(=O)CNC(=O)[C@@H]1CCCN1C(=O)[C@H](CC(=O)O)NC(=O)[C@@H](NC(=O)[C@H](CCCCN)NC(=O)[C@H](Cc1c[nH]c2ccccc12)NC(=O)[C@H](CO)NC(=O)[C@H](CC(C)C)NC(=O)CN)[C@@H](C)O)C(C)C)C(=O)N[C@@H](CC(C)C)C(=O)N[C@@H](CC(C)C)C(=O)N[C@@H](CC(=O)O)C(=O)N[C@@H](CC(C)C)C(=O)N[C@@H](Cc1ccc(O)cc1)C(=O)N[C@@H](CC(C)C)C(=O)N[C@@H](CC(=O)O)C(=O)N[C@@H](C)C(=O)N1CCC[C@H]1C(=O)NCC(=O)N[C@H](C(=O)N[C@@H](CSCC(=O)Nc1ccc2c(c1)C(=O)OC21c2ccc(O)cc2Oc2cc(O)ccc21)C(N)=O)C(C)C [PPKID8] (H-GLSWKTDPGDDAPVRRLSFFYILLDLYLDAPGVC(Fluorescein(5-NHCOCH2))-NH2) | – | 3.1 ± 0.5 | Kd ([1]; label shows phosphorylated (P) or unphosphorylated (U) form, read-out: Kd HisKIX): 1.5 to 3.1 µM
3 | CC[C@H](C)[C@H](NC(=O)[C@H](Cc1ccc(O)cc1)NC(=O)[C@H](Cc1ccccc1)NC(=O)[C@H](Cc1ccccc1)NC(=O)[C@H](COP(=O)(O)O)NC(=O)[C@H](CC(C)C)NC(=O)[C@H](CCCNC(=N)N)NC(=O)[C@@H](N)CCCNC(=N)N)C(=O)N[C@@H](CC(C)C)C(=O)N[C@@H](CC(C)C)C(=O)N[C@@H](CC(=O)O)C(=O)N[C@@H](CC(C)C)C(=O)N[C@@H](Cc1ccc(O)cc1)C(=O)N[C@@H](CC(C)C)C(=O)N[C@@H](CC(=O)O)C(=O)N[C@@H](C)C(=O)N1CCC[C@H]1C(=O)NCC(=O)N[C@H](C(=O)N[C@@H](CSCC(=O)Nc1ccc2c(c1)C(=O)OC21c2ccc(O)cc2Oc2cc(O)ccc21)C(N)=O)C(C)C [Peptide C, reference compound] (H-RRL[pS]FFYILLDLYLDAPGVC(Fluorescein(5-NHCOCH2))-NH2) | – | – | fold higher HisKIX affinity than KID-B^P [1]: greater than 20 fold; ΔΔG of CBP KIX binding compared to KID-B of the same phosphorylation state ([1]; listed as peptide C^P): -1.8 kcal/mol; ΔΔG of CBP KIX binding compared to KID-B of the same phosphorylation state ([1]; listed as peptide C^U): > -1.5 kcal/mol
4 | CC[C@H](C)[C@H](NC(=O)[C@H](Cc1ccc(O)cc1)NC(=O)[C@H](Cc1ccccc1)NC(=O)[C@H](Cc1ccccc1)NC(=O)[C@H](COP(=O)(O)O)NC(=O)[C@H](CC(C)C)NC(=O)[C@H](CCCNC(=N)N)NC(=O)[C@H](CCCNC(=N)N)NC(=O)[C@@H](NC(=O)[C@@H]1CCCN1C(=O)[C@H](C)NC(=O)[C@H](CC(=O)O)NC(=O)[C@H](CC(=O)O)NC(=O)CNC(=O)[C@H](Cc1c[nH]cn1)NC(=O)[C@H](Cc1ccc(O)cc1)NC(=O)[C@@H](NC(=O)[C@@H]1CCCN1C(=O)[C@H](Cc1c[nH]c2ccccc12)NC(=O)[C@H](CO)NC(=O)[C@H](CC(C)C)NC(=O)CN)[C@@H](C)O)C(C)C)C(=O)N[C@@H](CC(C)C)C(=O)N[C@@H](CC(C)C)C(=O)N[C@@H](CC(=O)O)C(=O)N[C@@H](CC(C)C)C(=O)N[C@@H](Cc1ccc(O)cc1)C(=O)N[C@@H](CC(C)C)C(=O)N[C@@H](CC(=O)O)C(=O)N[C@@H](C)C(=O)N1CCC[C@H]1C(=O)NCC(=O)N[C@H](C(=O)N[C@@H](CSCC(=O)Nc1ccc2c(c1)C(=O)OC21c2ccc(O)cc2Oc2cc(O)ccc21)C(N)=O)C(C)C [PPKID5] | – | 6.6 ± 2 | Kd ([1]; fluorescein-labeled phosphopeptide, read-out: Kd HisKIX, phosphorylated peptide (P)): 0.534 ± 0.031 µM
5 | CC[C@H](C)[C@H](NC(=O)CN)C(=O)N[C@@H](CO)C(=O)N[C@@H](Cc1c[nH]c2ccccc12)C(=O)N1CCC[C@H]1C(=O)N[C@H](C(=O)N[C@@H](Cc1ccccc1)C(=O)N[C@@H](CCC(=O)O)C(=O)NCC(=O)N[C@@H](CC(=O)O)C(=O)N[C@@H](CC(=O)O)C(=O)N[C@@H](C)C(=O)N1CCC[C@H]1C(=O)N[C@H](C(=O)N[C@@H](CCCNC(=N)N)C(=O)N[C@@H](CCCNC(=N)N)C(=O)N[C@@H](CC(C)C)C(=O)N[C@@H](CCC(=O)O)C(=O)N[C@@H](Cc1ccccc1)C(=O)N[C@@H](Cc1ccccc1)C(=O)N[C@@H](Cc1ccc(O)cc1)C(=O)N[C@H](C(=O)N[C@@H](CC(C)C)C(=O)N[C@@H](CC(C)C)C(=O)N[C@@H](CC(=O)O)C(=O)N[C@@H](CC(C)C)C(=O)N[C@@H](Cc1ccc(O)cc1)C(=O)N[C@@H](CC(C)C)C(=O)N[C@@H](CC(=O)O)C(=O)N[C@@H](C)C(=O)N1CCC[C@H]1C(=O)NCC(=O)N[C@H](C(=O)N[C@@H](CSCC(=O)Nc1ccc2c(c1)C(=O)OC21c2ccc(O)cc2Oc2cc(O)ccc21)C(N)=O)C(C)C)[C@@H](C)CC)C(C)C)[C@@H](C)O [PPKID6 S18E] (H-GISWPTFEGDDAPVRRLEFFYILLDLYLDAPGVC(Fluorescein(5-NHCOCH2))-NH2) | – | 10.9 ± 2 | –

Second part, led by results:

Row | Kd (CBP KIX wild type) [nM] | Kd [1, 2] [µM] | Structure (SMILES) | also measured
6 | 2550 ± 250 | – | CC[C@H](C)[C@H](NC(=O)[C@H](Cc1ccc(O)cc1)NC(=O)[C@H](C)NC(=O)[C@H](Cc1ccccc1)NC(=O)[C@H](COP(=O)(O)O)NC(=O)[C@H](CC(C)C)NC(=O)[C@H](CCCNC(=N)N)NC(=O)[C@H](CCCNC(=N)N)NC(=O)[C@@H](NC(=O)[C@@H]1CCCN1C(=O)[C@H](C)NC(=O)[C@H](CC(=O)O)NC(=O)[C@H](CC(=O)O)NC(=O)CNC(=O)[C@@H]1CCCN1C(=O)[C@H](Cc1ccc(O)cc1)NC(=O)[C@@H](NC(=O)[C@@H]1CCCN1C(=O)[C@H](CCC(N)=O)NC(=O)[C@H](CO)NC(=O)[C@@H]1CCCN1C(=O)CN)[C@@H](C)O)C(C)C)C(=O)N[C@@H](CC(C)C)C(=O)N[C@@H](CC(C)C)C(=O)N[C@@H](CC(=O)O)C(=O)N[C@@H](CC(C)C)C(=O)N[C@@H](Cc1ccc(O)cc1)C(=O)N[C@@H](CC(C)C)C(=O)N[C@@H](CC(=O)O)C(=O)N[C@@H](C)C(=O)N1CCC[C@H]1C(=O)NCC(=O)N[C@H](C(=O)N[C@@H](CSCC(=O)Nc1ccc2c(c1)C(=O)OC21c2ccc(O)cc2Oc2cc(O)ccc21)C(N)=O)C(C)C [F20A] (H-GPSQPTYPGDDAPVRRL[pS]FAYILLDLYLDAPGVC(Fluorescein(5-NHCOCH2))-NH2) | –
7 | 1160 ± 70 | – | CC[C@H](C)[C@H](NC(=O)[C@H](Cc1ccc(O)cc1)NC(=O)[C@H](Cc1ccccc1)NC(=O)[C@H](Cc1ccccc1)NC(=O)[C@H](COP(=O)(O)O)NC(=O)[C@H](CC(C)C)NC(=O)[C@H](CCCNC(=N)N)NC(=O)[C@H](CCCNC(=N)N)NC(=O)[C@@H](NC(=O)[C@@H]1CCCN1C(=O)[C@H](C)NC(=O)[C@H](CC(=O)O)NC(=O)[C@H](CC(=O)O)NC(=O)CNC(=O)[C@@H]1CCCN1C(=O)[C@H](Cc1ccc(O)cc1)NC(=O)[C@@H](NC(=O)[C@@H]1CCCN1C(=O)[C@H](CCC(N)=O)NC(=O)[C@H](CO)NC(=O)[C@@H]1CCCN1C(=O)CN)[C@@H](C)O)C(C)C)C(=O)N[C@@H](CC(C)C)C(=O)N[C@@H](C)C(=O)N[C@@H](CC(=O)O)C(=O)N[C@@H](CC(C)C)C(=O)N[C@@H](Cc1ccc(O)cc1)C(=O)N[C@@H](CC(C)C)C(=O)N[C@@H](CC(=O)O)C(=O)N[C@@H](C)C(=O)N1CCC[C@H]1C(=O)NCC(=O)N[C@H](C(=O)N[C@@H](CSCC(=O)Nc1ccc2c(c1)C(=O)OC21c2ccc(O)cc2Oc2cc(O)ccc21)C(N)=O)C(C)C [L24A] (H-GPSQPTYPGDDAPVRRL[pS]FFYILADLYLDAPGVC(Fluorescein(5-NHCOCH2))-NH2) | –
8 | 830 ± 110 | – | CC[C@H](C)[C@H](NC(=O)[C@H](Cc1ccc(O)cc1)NC(=O)[C@H](Cc1ccccc1)NC(=O)[C@H](Cc1ccccc1)NC(=O)[C@H](COP(=O)(O)O)NC(=O)[C@H](CC(C)C)NC(=O)[C@H](CCCNC(=N)N)NC(=O)[C@H](CCCNC(=N)N)NC(=O)[C@@H](NC(=O)[C@@H]1CCCN1C(=O)[C@H](C)NC(=O)[C@H](CC(=O)O)NC(=O)[C@H](CC(=O)O)NC(=O)CNC(=O)[C@@H]1CCCN1C(=O)[C@H](Cc1ccc(O)cc1)NC(=O)[C@@H](NC(=O)[C@@H]1CCCN1C(=O)[C@H](CCC(N)=O)NC(=O)[C@H](CO)NC(=O)[C@@H]1CCCN1C(=O)CN)[C@@H](C)O)C(C)C)C(=O)N[C@@H](CC(C)C)C(=O)N[C@@H](CC(C)C)C(=O)N[C@@H](CC(=O)O)C(=O)N[C@@H](CC(C)C)C(=O)N[C@@H](Cc1ccc(O)cc1)C(=O)N[C@@H](C)C(=O)N[C@@H](CC(=O)O)C(=O)N[C@@H](C)C(=O)N1CCC[C@H]1C(=O)NCC(=O)N[C@H](C(=O)N[C@@H](CSCC(=O)Nc1ccc2c(c1)C(=O)OC21c2ccc(O)cc2Oc2cc(O)ccc21)C(N)=O)C(C)C [L28A] (H-GPSQPTYPGDDAPVRRL[pS]FFYILLDLYADAPGVC(Fluorescein(5-NHCOCH2))-NH2) | –
